Assay results taken from patent publication US20240358727A1, “MICROSCALE THERMOPHORESIS TO EVALUATE CHANNEL LIPID INTERACTIONS AND METHODS OF TREATING NAV CHANNELS RELATED DISEASES” (Northeastern University, priority 2023, published 2024).
Entries after “also recorded” stand apart in the source; their conditions may differ.

How the values were obtained:
[1] = molecular target: T1, Nav1.5 channel currents (INa, ILATE) in M3q iPS-CMs (Homo sapiens, UniProt Q14524); assay: Whole-cell patch-clamp of INa and ILATE in M3q-DREADD iPS-CMs activated with CNO; format: cell-based; conditions: for effect on CNO-evoked increase in ILATE / effect on CNO-evoked leftwards shifts in V½ACT and V½SSI: 200 μM diC8-PIP2 in pipette; for effect on CNO (M3q activation) effects on V½ACT, V½SSI and ILATE: staurosporine 1 μM 1-hour preincubation, BAPTA 10 mM in pipette, U73122 5 μM, diC8-PIP2 200 μM in pipette
T1 construct: host or cells: human iCell^2 iPS cardiomyocytes (transfected with M3q DREADD in A5; endogenous AT1 receptor in A7)
Experimental: (§1) Control is CNO application to cells with no M3q. Mean±SD % fluorescence change for 20 cells per group; an example photobleaching montage is inset. […] Leftwards shifts in each parameter are precluded by U73122 or by 200 μM diC8-PIP2 in the pipette but are not sensitive to staurosporine or BAPTA. The cells were perfused with an extracellular solution containing (in mM): 130 NaCl, 5 CsCl, 1.2 MgCl2, 1.5 CaCl2), 8 Glucose, 10 HEPES (pH7.4). […] nitrendipine was added to the recording solution to block Ca^2+ flux through Cav channels. Patch pipettes with a resistance of 2.5-4 MQ are filled with a solution containing (in mM): 60 CsCl, 80 CsF, 2 MgCl2, 10 EGTA, 5 Na2ATP, 5 HEPES (pH 7.4). Currents were low pass (Bessel) filtered at 9 kHz and digitized at 50 kHz and were collected from cells with a series resistance <15 MQ; this was compensated by 70%.
Results. Studies are designed to evaluate if hydrolysis of PIP2 modulates Nav1.5 channel currents in cardiomyocytes. To perform these experiments, we used human iPS cardiomyocytes (iCell^2 iPS-CMs) from Fuji-Film Cellular Dynamics. These iPS-CMs are a valuable model system for human cardiomyocytes that retain many of the key characteristics of the native cells. Here, we transfected the iPS-CMs to express the Gαq-coupled M3q Designer Receptors Exclusively Activated by Designer Drugs (DREADD) receptor. We use a magnetic transfection system from Oz Biosciences that we have previously employed with cardiomyocytes. First, we tested the efficacy of M3q to hydrolyze PIP2 in our model system. To accomplish this, we studied uncoupling of the PIP2 biosensor iRFP-PHPLCδ1 from the plasma membrane in response to chemogenic activation of M3q by 100 nM clozapine N-oxide (CNO, Tocris Biosciences).
These findings are consistent with our prior observations and the work using optogenetically activated PI-phosphatases to deplete PIP2 in HEK293 cells […] Xenopus laevis oocytes. […] Having established a time frame for PIP2 hydrolysis in our system, we used whole-cell patch-clamp to study INa in paired experiments, before and after chemogenic activation of M3q. Applying 100 nM CNO evoked a leftward shift in the current-voltage (I-V) relationship of INa such that peak INa shifted from −25 to −35 mV. At −35 mV, the peak current-density increased from −220±5 pA/pF to −266±4 pA/pF at −35 mV (n=8, P<0.001, paired Student's t-test). […] However, in contrast to our findings with Nav1.4, activating M3q signaling also left-shifted the steady state inactivation curve of Nav1.5 (V½SSI), from −81.4±2 to −89.7±2 mV (n=8, P<0.01, paired t-test; FIGS. 2C, 2D). These studies indicate that Nav1.5 channels are regulated by hydrolysis of PIP2 and that there are distinctions between PIP2 regulation of Nav1.5 and Nav1.4.
Next, we studied the effect of M3q-activation on ILATE by recording currents evoked by a 400 ms depolarizing pulse to −20 mV before and during receptor activation. The magnitude of ILATE represents the mean current 150-200 ms after peak INa and is expressed as a percentage of peak INa. […] The effects of M3q activation on V½ACT, V½SSI, and the development of ILATE were not affected by staurosporine (1 μM, 1-hour preincubation) or BAPTA (10 mM in the recording pipette), making a role for IP3 or DAG unlikely. […] Similar data were obtained for Nav1.5 expressed with Navβ1 and the M3q-DREADD receptor in HEK293T cells. This experiment validates that the findings are not restricted to a particular model system or cellular environment.
Measure modulation in INa and ILATE by endogenous Gαq signaling. Like native cardiomyocytes, human iPS-CMs express AT1 receptors. Here, the effects of Ang II (Tocris) on Nav1.5 channel function in iPS-CMs is tested using four whole-cell patch-clamp recording protocols. […]

[2] = tested on: PIP2 hydrolysis (iRFP-PHPLCδ1 biosensor); assay: TIRFM uncoupling of PIP2 biosensor iRFP-PHPLCδ1 from the membrane of M3q iPS-CMs; format: cell-based, human; conditions: 100 nM CNO
Experimental: as §1
Results. Studies are designed to evaluate if hydrolysis of PIP2 modulates Nav1.5 channel currents in cardiomyocytes. To perform these experiments, we used human iPS cardiomyocytes (iCell^2 iPS-CMs) from Fuji-Film Cellular Dynamics. These iPS-CMs are a valuable model system for human cardiomyocytes that retain many of the key characteristics of the native cells. Here, we transfected the iPS-CMs to express the Gαq-coupled M3q Designer Receptors Exclusively Activated by Designer Drugs (DREADD) receptor. […]

[3] = tested on: Nav1.5 channel currents (INa, ILATE) in iPS-CMs; assay: Whole-cell patch-clamp of INa and ILATE in iPS-CMs treated with Ang II; format: cell-based, human; conditions: 100 nM Ang II
Experimental: Control is CNO application to cells with no M3q. Mean±SD % fluorescence change for 20 cells per group; an example photobleaching montage is inset. […] The cells were perfused with an extracellular solution containing (in mM): 130 NaCl, 5 CsCl, 1.2 MgCl2, 1.5 CaCl2), 8 Glucose, 10 HEPES (pH7.4). […] nitrendipine was added to the recording solution to block Ca^2+ flux through Cav channels. Patch pipettes with a resistance of 2.5-4 MQ are filled with a solution containing (in mM): 60 CsCl, 80 CsF, 2 MgCl2, 10 EGTA, 5 Na2ATP, 5 HEPES (pH 7.4). Currents were low pass (Bessel) filtered at 9 kHz and digitized at 50 kHz and were collected from cells with a series resistance <15 MQ; this was compensated by 70%.
The data are mean±sem for 4 cells per experiment.
Measure modulation in INa and ILATE by endogenous Gαq signaling. Like native cardiomyocytes, human iPS-CMs express AT1 receptors. Here, the effects of Ang II (Tocris) on Nav1.5 channel function in iPS-CMs is tested using four whole-cell patch-clamp recording protocols. Recording solutions and amplifier settings are described in the legend of FIG. 2: • i) I-V (and G-V): The current-voltage (I-V) relationship reports on current-density across the physiological voltage range and provides a conductance voltage (G-V) relationship that is normalized and fitted with a Boltzmann function to illustrate the voltage-dependence of activation, V½ACT. • ii) SSI: a paired-pulse protocol to determine the voltage-dependence of steady-state inactivation (SSI). The prepulse is incrementally depolarized while the test-pulse remains at a fixed amplitude. […] This parameter is studied using paired steps to −30 mV and incrementally increasing the duration between the pulses. • iv) ILATE is studied using 400 ms depolarizing pulses to −20 mV. The pulse is repeated every 10 seconds for the duration of a time-course study. Subsequently, the cell is exposed to the state-dependent, late-current blocker ranolazine at 1 μM, as previously described. The magnitude of ILATE represents the mean current 150-200 ms after peak INa and is expressed as a percentage of peak INa, following ranolazine subtraction. The time course of a change in ILATE and the change in the time constant of fast inactivation are evaluated.
In each case, Nav1.5 currents is studied before and after the administration of Ang II. […] Next, we study the concentration-dependence of these effects, spanning the pathophysiological range (20-200 nM). Utilizing a non-saturating concentration of Ang II, we introduce pharmacological tools to determine the effects on Nav1.5 function attributable to PIP2 hydrolysis. […] Subsequently, we block PIP2 hydrolysis using the PLCβ inhibitor, U73122 (5 μM, Tocris Biosciences). […] We test if downstream products of PIP2 hydrolysis alter Nav1.5 currents using the PKC inhibitor staurosporine (1 μM, 1-hour preincubation, Sigma-Aldrich) and the Ca^2+ chelator, BAPTA (10 mM in the pipette, Sigma-Aldrich).

T1 sequence (Q14524 whole entry): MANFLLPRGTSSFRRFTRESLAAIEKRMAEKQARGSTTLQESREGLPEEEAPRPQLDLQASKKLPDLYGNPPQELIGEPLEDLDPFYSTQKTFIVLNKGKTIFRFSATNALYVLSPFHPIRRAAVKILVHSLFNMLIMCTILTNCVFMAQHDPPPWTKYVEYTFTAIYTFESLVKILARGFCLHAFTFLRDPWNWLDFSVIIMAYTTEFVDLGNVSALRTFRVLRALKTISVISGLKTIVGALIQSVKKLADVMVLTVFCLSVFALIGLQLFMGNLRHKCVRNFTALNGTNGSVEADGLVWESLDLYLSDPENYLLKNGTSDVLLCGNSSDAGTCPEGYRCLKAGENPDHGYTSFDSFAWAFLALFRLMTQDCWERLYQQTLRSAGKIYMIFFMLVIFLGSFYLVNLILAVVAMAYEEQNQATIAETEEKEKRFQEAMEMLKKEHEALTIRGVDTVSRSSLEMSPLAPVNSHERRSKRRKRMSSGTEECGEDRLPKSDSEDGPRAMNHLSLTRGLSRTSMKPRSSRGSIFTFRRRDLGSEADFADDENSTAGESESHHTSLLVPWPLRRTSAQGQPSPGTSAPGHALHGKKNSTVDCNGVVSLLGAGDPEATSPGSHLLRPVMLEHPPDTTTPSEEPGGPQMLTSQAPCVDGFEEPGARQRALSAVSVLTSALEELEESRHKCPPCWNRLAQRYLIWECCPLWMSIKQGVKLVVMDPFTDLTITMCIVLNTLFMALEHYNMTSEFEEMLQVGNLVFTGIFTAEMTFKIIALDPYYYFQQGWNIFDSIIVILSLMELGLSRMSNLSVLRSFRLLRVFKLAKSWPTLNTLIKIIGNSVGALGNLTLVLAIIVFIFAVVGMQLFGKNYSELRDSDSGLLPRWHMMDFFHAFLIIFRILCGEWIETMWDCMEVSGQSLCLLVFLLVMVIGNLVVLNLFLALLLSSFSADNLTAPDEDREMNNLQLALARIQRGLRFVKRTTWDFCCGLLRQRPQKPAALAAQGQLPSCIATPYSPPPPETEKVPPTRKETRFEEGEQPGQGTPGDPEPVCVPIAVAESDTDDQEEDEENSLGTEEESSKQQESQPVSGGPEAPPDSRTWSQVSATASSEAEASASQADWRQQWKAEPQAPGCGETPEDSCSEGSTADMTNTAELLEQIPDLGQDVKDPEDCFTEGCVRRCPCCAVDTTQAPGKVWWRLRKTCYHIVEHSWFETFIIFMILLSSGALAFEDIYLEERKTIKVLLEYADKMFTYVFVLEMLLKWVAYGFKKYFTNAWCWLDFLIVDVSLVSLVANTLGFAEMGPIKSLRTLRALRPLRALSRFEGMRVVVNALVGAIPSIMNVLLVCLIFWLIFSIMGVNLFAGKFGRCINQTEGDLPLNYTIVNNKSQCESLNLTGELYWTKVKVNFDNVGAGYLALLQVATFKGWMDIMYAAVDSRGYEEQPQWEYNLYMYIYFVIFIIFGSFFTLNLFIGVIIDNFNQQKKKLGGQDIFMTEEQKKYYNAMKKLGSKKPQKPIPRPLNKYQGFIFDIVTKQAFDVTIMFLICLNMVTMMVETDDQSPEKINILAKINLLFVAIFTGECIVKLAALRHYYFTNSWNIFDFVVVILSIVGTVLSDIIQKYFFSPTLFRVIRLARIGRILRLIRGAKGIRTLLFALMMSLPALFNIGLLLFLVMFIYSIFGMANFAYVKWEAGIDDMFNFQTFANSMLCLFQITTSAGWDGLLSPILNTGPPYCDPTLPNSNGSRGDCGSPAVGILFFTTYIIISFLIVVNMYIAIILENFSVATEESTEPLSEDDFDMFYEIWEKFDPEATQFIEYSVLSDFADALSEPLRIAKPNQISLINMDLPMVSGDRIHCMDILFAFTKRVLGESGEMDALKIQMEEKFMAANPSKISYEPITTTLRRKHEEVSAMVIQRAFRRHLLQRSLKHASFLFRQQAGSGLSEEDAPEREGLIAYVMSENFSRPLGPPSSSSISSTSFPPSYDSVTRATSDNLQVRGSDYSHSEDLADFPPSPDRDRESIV

O=C(O)CN(CC(=O)O)c1ccccc1OCCOc1ccccc1N(CC(=O)O)CC(=O)O [BAPTA]
effect on CNO-evoked increase in ILATE ([1]; 100 nM CNO): not sensitive
effect on CNO-evoked leftwards shifts in V½ACT and V½SSI ([1]; 100 nM CNO): not sensitive
effect on CNO (M3q activation) effects on V½ACT, V½SSI and ILATE ([1]; 100 nM CNO): not affected; also recorded: not blocked

C[N+]1([O-])CCN(C2=Nc3cc(Cl)ccc3Nc3ccccc32)CC1 [CNO, clozapine N-oxide]
fold increase in ILATE ([1]; 100 nM CNO vs control): 16 fold
ILATE ([1]; 100 nM CNO, 400 ms pulse to −20 mV, control 0.22%): ~3.9 % of peak INa
peak current-density ([1]; 100 nM CNO, at −35 mV, before −220±5): −266±4 pA/pF
leftward shift in V½ACT ([1]; 100 nM CNO, paired before/after): −10±5 mV
voltage of peak INa (I-V relationship) ([1]; 100 nM CNO, before CNO −25 mV): −35 mV
V½SSI ([1]; 100 nM CNO, before −81.4±2): −89.7±2 mV
time to complete uncoupling of iRFP-PHPLCδ1 from the membrane [2]: ≤ 200 s

COc1ccc2c(c1)CC[C@@H]1[C@@H]2CC[C@]2(C)[C@@H](NCCCCCCN3C(=O)C=CC3=O)CC[C@@H]12 [U73122]
effect on CNO-evoked increase in ILATE ([1]; 100 nM CNO): precluded
effect on CNO-evoked leftwards shifts in V½ACT and V½SSI ([1]; 100 nM CNO): precluded
effect on CNO (M3q activation) effects on V½ACT, V½SSI and ILATE ([1]; 100 nM CNO): blocked; also recorded: abolished
uncoupling of iRFP-PHPLCδ1 after M3q activation ([2]; U73122 5 μM): does not occur

CN[C@@H]1C[C@H]2O[C@@](C)([C@@H]1OC)n1c3ccccc3c3c4c(c5c6ccccc6n2c5c31)C(=O)NC4 [staurosporine]
effect on CNO-evoked increase in ILATE ([1]; 100 nM CNO): not sensitive
effect on CNO-evoked leftwards shifts in V½ACT and V½SSI ([1]; 100 nM CNO): not sensitive
effect on CNO (M3q activation) effects on V½ACT, V½SSI and ILATE ([1]; 100 nM CNO): not affected; also recorded: not blocked

angiotensin II (DRVYIHPF; Angiotensin-2; UniProt P01019 25-32, looked up) [Ang II, agonist of the Gαq-coupled AT1 receptor (Tocris)]
leftward shift in V½ACT [3]: −7 mV
leftward shift in V½SSI [3]: −7 mV
peak INa [3]: increased; also recorded: elevated
time over which ILATE increased [3]: ~250 s
ILATE ([3]; before 0.15±0.1): 3.6±0.3 % of IPEAK
